From ChEMBL document CHEMBL1201862, “PubChem BioAssay data set” (2004)
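A five-concentration, 48-hour dose response in 96-well plates underlies each endpoint, interpolated linearly between surrounding concentrations. Abbreviation: GI50, concentration required for 50% inhibition of growth.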 The source made the active and inactive calls. Rule as the data show it: active = GI50 up to about 1.1 µM and inactive = higher.

How the values were obtained:
Test in all cases: growth of human tumour cells (NCI), 48 h
MDA-N = test system: MDA-N
SF-268 = test system: SF-268
NCI/ADR-RES = test system: NCI/ADR-RES
LOX IMVI = test system: LOX IMVI
SF-539 = test system: SF-539
HCC 2998 = test system: HCC 2998
ACHN = test system: ACHN
OVCAR-5 = test system: OVCAR-5
DU-145 = test system: DU-145
A549 = test system: A549
A498 = test system: A498
TK-10 = test system: TK-10
T47D = test system: T47D
Hs-578T = test system: Hs-578T
EKVX = test system: EKVX
SNB-75 = test system: SNB-75
PC-3 = test system: PC-3
KM12 = test system: KM12
SK-OV-3 = test system: SK-OV-3
RXF 393 = test system: RXF 393
OVCAR-3 = test system: OVCAR-3
SK-MEL-28 = test system: SK-MEL-28
MDA-MB-231 = test system: MDA-MB-231
SK-MEL-2 = test system: SK-MEL-2
NCI-H460 = test system: NCI-H460
SN12C = test system: SN12C
IGROV-1 = test system: IGROV-1
CAKI-1 = test system: CAKI-1
COLO 205 = test system: COLO 205
SNB-19 = test system: SNB-19
UACC-257 = test system: UACC-257
MCF7 = test system: MCF7
MDA-MB-435 = test system: MDA-MB-435
SK-MEL-5 = test system: SK-MEL-5
CCRF-CEM = test system: CCRF-CEM
HT-29 = test system: HT-29
MOLT-4 = test system: MOLT-4
RPMI-8226 = test system: RPMI-8226
HOP-92 = test system: HOP-92
U-251 = test system: U-251
K562 = test system: K562
UACC-62 = test system: UACC-62
SW-620 = test system: SW-620
M14 = test system: M14
Malme-3M = test system: Malme-3M
HL-60 = test system: HL-60
OVCAR-4 = test system: OVCAR-4
OVCAR-8 = test system: OVCAR-8
786-0 = test system: 786-0
NCI-H522 = test system: NCI-H522
BT-549 = test system: BT-549
SF-295 = test system: SF-295
HCT-15 = test system: HCT-15
HCT-116 = test system: HCT-116
UO-31 = test system: UO-31
HOP-62 = test system: HOP-62
NCI-H23 = test system: NCI-H23

O=C(/C=N/O)Nc1cc(Cl)c(Cl)cc1Cl
GI50 (MDA-N): 27.7 µM (inactive) | GI50 (SF-268): 33.3 µM (inactive) | GI50 (NCI/ADR-RES): 33.9 µM (inactive) | GI50 (LOX IMVI): 33.8 µM (inactive) | GI50 (SF-539): 31.6 µM (inactive) | GI50 (HCC 2998): 26.6 µM (inactive) | GI50 (ACHN): 29.9 µM (inactive) | GI50 (OVCAR-5): 42.1 µM (inactive) | GI50 (DU-145): 31.9 µM (inactive) | GI50 (A549): 34.5 µM (inactive) | GI50 (A498): 16.6 µM (inactive) | GI50 (TK-10): 30.4 µM (inactive) | GI50 (T47D): 16.5 µM (inactive) | GI50 (Hs-578T): 29.2 µM (inactive) | GI50 (EKVX): 23.2 µM (inactive) | GI50 (SNB-75): 20.7 µM (inactive) | GI50 (PC-3): 33.2 µM (inactive) | GI50 (KM12): 26.5 µM (inactive) | GI50 (SK-OV-3): 27.8 µM (inactive) | GI50 (RXF 393): 31.5 µM (inactive) | GI50 (OVCAR-3): 24.4 µM (inactive) | GI50 (SK-MEL-28): 41 µM (inactive) | GI50 (MDA-MB-231): 25.8 µM (inactive) | GI50 (SK-MEL-2): 24.9 µM (inactive) | GI50 (NCI-H460): 28.4 µM (inactive) | GI50 (SN12C): 23.9 µM (inactive) | GI50 (IGROV-1): 20.7 µM (inactive) | GI50 (CAKI-1): 24.3 µM (inactive) | GI50 (COLO 205): 26.8 µM (inactive) | GI50 (SNB-19): 50.5 µM (inactive) | GI50 (UACC-257): 26.6 µM (inactive) | GI50 (MCF7): 22.6 µM (inactive) | GI50 (MDA-MB-435): 23 µM (inactive) | GI50 (SK-MEL-5): 17.7 µM (inactive) | GI50 (CCRF-CEM): 26.7 µM (inactive) | GI50 (HT-29): 36.8 µM (inactive) | GI50 (MOLT-4): 15.1 µM (inactive) | GI50 (RPMI-8226): 27.9 µM (inactive) | GI50 (HOP-92): 26.9 µM (inactive) | GI50 (U-251): 29.2 µM (inactive) | GI50 (K562): 25.6 µM (inactive) | GI50 (UACC-62): 25.9 µM (inactive) | GI50 (SW-620): 35.7 µM (inactive) | GI50 (M14): 34.4 µM (inactive) | GI50 (Malme-3M): 35.7 µM (inactive) | GI50 (HL-60): 18.7 µM (inactive) | GI50 (OVCAR-4): 26.1 µM (inactive) | GI50 (OVCAR-8): 23.8 µM (inactive) | GI50 (786-0): 37.4 µM (inactive) | GI50 (NCI-H522): 24.9 µM (inactive) | GI50 (BT-549): 27.2 µM (inactive) | GI50 (SF-295): 27 µM (inactive) | GI50 (HCT-15): 31.4 µM | GI50 (HCT-116): 37.1 µM (inactive) | GI50 (UO-31): 41.9 µM (inactive) | GI50 (HOP-62): 31.6 µM (inactive) | GI50 (NCI-H23): 29.6 µM (inactive)
